Laboratory results: patent US4673671A, “Method for improving the absorption and effectiveness of a catecholamine compound” (SIMES Societa Italiana Medicinali e Sintetici S.p.A., priority 1984, dated 1987)

What was measured:
[1] = tested on: renal blood flow and renal vascular resistances; assay: Cardiovascular parameters (renal blood flow and renal vascular resistances) in anesthetized dogs, intraduodenal administration; format: in vivo, dog; conditions: for selectivity and duration of renal effect (in words) / duration of effects on renal blood flow and resistances: 5 mg/kg; for renal vasodilating effect (in words): comparison of N-methyldopamine 4-O-dihydrogenphosphate with N-methyldopamine
Protocol: The activity of N-methyldopamine 4-O-dihydrogenphosphate on cardiovascular parameters in anesthetized dogs was compared with that of N-methyldopamine; both compounds were administered by intraduodenal route.

blood pressure = assay: Blood pressure in spontaneous hypertensive rats, oral administration; format: in vivo, rat
Description: N,N-di-n-propyldopamine 4-O-dihydrogenphosphate reduced blood pressure by 30-35% (p<0.01) when orally administered to spontaneous hypertensive rats at a dose of 0.29 mmoles/kg; the effect lasted five hours while N,N-di-n-propyl dopamine was ineffective at the same dosage and also at 0.58 mmoles/kg.

urine excretion = assay: Urine excretion in normally hydrated rats, oral administration; format: in vivo, rat; conditions: 0.29 mmoles/kg; for increase of urine excretion: p<0.05
Description: These diuretic properties are useful in the therapy of hypertension and cardiac and renal failure.

[2] = anesthetized dogs, i.d., 0.005 mmoles/kg (1.25 mg/kg), n=6
[3] = anesthetized dogs, i.d., 0.04 mmoles/kg (10 mg/kg), n=7, **P <0.01
[4] = anesthetized dogs, i.d., 0.035 mmoles/kg (7.1 mg/kg), n=5

NCCc1ccc(OP(=O)(O)O)c(O)c1 [Dopamine 4-O-dihydrogenphosphate, dopamine 4-O-dihydrogenphosphate]
selectivity and duration of renal effect (in words) [1]: selective and long lasting
decrease in renal resistances ([1]; 5 mg/kg (0.02 mmoles/kg)): -15%
increase in renal blood flow ([1]; 5 mg/kg (0.02 mmoles/kg)): +14.5%

CCCN(CCC)CCc1ccc(O)c(O)c1 [N,N-di-n-propyl dopamine, N,N-di-n-propyldopamine, reference compound]
effect on blood pressure (in words) (blood pressure; 0.29 mmoles/kg): ineffective
effect on blood pressure (in words) (blood pressure; 0.58 mmoles/kg): ineffective

CCCN(CCC)CCc1ccc(OP(=O)(O)O)c(O)c1 [N,N-di-n-propyldopamine 4-O-dihydrogenphosphate]
duration of blood pressure reduction (blood pressure; 0.29 mmoles/kg): five
reduction of blood pressure (blood pressure; 0.29 mmoles/kg, p<0.01): 30-35%

CNCCc1ccc(O)c(OP(=O)(O)O)c1 [N-methyldopamine 3-O-dihydrogenphosphate]
increase of urine excretion (urine excretion): 180%

CNCCc1ccc(OP(=O)(O)O)c(O)c1 [N-methyldopamine 4-O-dihydrogenphosphate]
increase of urine excretion (urine excretion): 170%
duration of renal vasodilating action ([1]; anesthetized dogs, i.d.): about four
modification of other hemodynamic parameters ([1]; anesthetized dogs, i.d.): without any modification of other hemodynamic parameters
Maximum percentage variation of renal blood flow [1, 2]: +14.2%
Maximum percentage variation of renal vascular resistances [1, 2]: -11.2%
Maximum percentage variation of renal vascular resistances ([1]; anesthetized dogs, i.d., 0.01 mmoles/kg (2.5 mg/kg), n=6): -14.1%
Maximum percentage variation of renal blood flow ([1]; anesthetized dogs, i.d., 0.01 mmoles/kg (2.5 mg/kg), n=6, **P <0.01): +18.5%
Maximum percentage variation of renal blood flow ([1]; anesthetized dogs, i.d., 0.02 mmoles/kg (5 mg/kg), n=7, **P <0.01): +36.4%
Maximum percentage variation of renal vascular resistances ([1]; anesthetized dogs, i.d., 0.02 mmoles/kg (5 mg/kg), n=7, *P <0.05): -24.5%
Maximum percentage variation of renal blood flow [1, 3]: +31.7%
Maximum percentage variation of renal vascular resistances [1, 3]: -28.1%
renal vasodilating effect (in words) ([1]; anesthetized dogs, i.d.): improved effectiveness, either in terms of activity or duration of action or selective renal vasodilating action
absorption ([1]; i.d., compared with N-methyldopamine): improved absorption

CCOP(=O)(O)Oc1ccc(CCNC)cc1O [N-methyldopamine 4-O-ethyl-hydrogenphosphate]
duration of effects on renal blood flow and resistances [1]: over 5 hours
increase of renal blood flow ([1]; 5 mg/kg (0.018 mmoles/kg)): +46%
reduction of renal resistances ([1]; 5 mg/kg (0.018 mmoles/kg)): -32%

CNCCc1ccc(OP(=O)(O)OC)c(O)c1 [N-methyldopamine 4-O-methylhydrogenphosphate]
duration of effects on renal blood flow and resistances [1]: over 5 hours
increase of renal blood flow ([1]; 5 mg/kg (0.019 mmole/kg)): +26%
reduction of renal resistances ([1]; 5 mg/kg (0.019 mmole/kg)): -19%

CNCCc1ccc(O)c(O)c1 [N-methyldopamine, reference compound]
effect on urine excretion (in words) (urine excretion): ineffective
accompanying effect on blood pressure ([1]; anesthetized dogs, i.d.): undesired increase of blood pressure
accompanying effect on the heart ([1]; anesthetized dogs, i.d.): stimulation of the heart
duration of renal vasodilating action ([1]; anesthetized dogs, i.d.): two
Maximum percentage variation of renal blood flow [1, 4]: +14.9%
Maximum percentage variation of renal vascular resistances [1, 4]: -14%
renal vasodilating effect (in words) ([1]; anesthetized dogs, i.d.): smaller effect

N[C@@H](CCC(=O)NCCc1ccc(OP(=O)(O)O)c(O)c1)C(=O)O [N^5-[2-(3,4-dihydroxyphenyl)-ethyl]-L-glutamine 4-O-dihydrogenphosphate]
selectivity and duration of renal effect (in words) [1]: selective and long lasting
decrease in renal resistances ([1]; 5 mg/kg (0.014 mmoles/kg)): -18%
increase in renal blood flow ([1]; 5 mg/kg (0.014 mmoles/kg)): +25%

NCCc1ccc(O)c(O)c1 [dopamine, 1-(3,4-dihydroxyphenyl)-2-amino-ethane, reference compound]
effect on renal blood flow and renal resistances (in words) ([1]; 10 mg/kg (0.053 mmoles/kg)): ineffective
